Test system: methylated gene promoters in FFPE tissue DNA
Experiment: Real-time MSP on colon tissue samples
Parameters: species or system human
Settings: for Specificity (%) / Sensitivity (%): 50 cases (adenoma + carcinoma) vs 39 controls, tissue
Method: Real-time MSP was applied on a 7900HT fast real-time PCR system (Applied Biosystems). 2.4 μl of the modified DNA (equivalent to 2.5 μg unconverted DNA) was added to a PCR mix (total volume 12 μl) containing buffer (16.6 mM (NH4)2SO4, 67 mM Tris (pH 8.8), 6.7 mM MgCl2, 10 mM β-mercaptoethanol), dNTPs (5 mM), forward primer (6 ng), reverse primer (18 ng), molecular beacon (0.16 μM), BSA (0.1 μg), and Jumpstart DNA Taq polymerase (0.4 units; Sigma Aldrich). Cycle program used was as follows: 5 minutes 95° C., followed by 45 cycles of 30 seconds 95° C., 30 seconds 57° C. (51° C. for APC), and 30 seconds 72° C., followed by 5 minutes 72° C. A standard curve (2×106—20 copies) was included to determine copy numbers of unknown samples by interpolation of their Ct values to the standard curve.
Marker selection in colon tissue: Based on re-expression, 224 different gene assays representing 145 gene promotors were tested on the Base5 methylation profiling platform (data not shown, see reference 1 for details). The 37 most differentially methylated gene sequences assessing 29 gene promoters were validated on retrospectively collected tumors from 65 colorectal cancer patients (all stages) and 74 distant resection ends (histopathologically normal) using real-time MSP. Several markers reliably detected CRC in those tissue samples (data not shown). The results were confirmed on an independent test set containing 39 tissue controls (non-cancerous), 34 carcinomas and 16 adenomas. Several combinations of the tested markers reliably detected CRC with high specificity and sensitivity.
The ten best performing markers GATA5, GATA4, SFRP1, SFRP2, APC, MGMT, NDRG4, OSMR, JPH3 and ADAM23 were validated with primer sets and beacon probes as specified in Table 24. In addition to the colon test genes, the independent reference gene β-Actin (ACT) was also measured. The ratios between the colon test genes and ACT were calculated, and are the test result of the assay.
Marker candidates identified by re-expression were screened using 37 real-time methylation specific PCR (real-time MSP) assays. These assays were used to assess the methylation status of 29 gene promoters in 293 formalin-fixed paraffin-embedded (FFPE) tissue samples collected from various clinics. Samples included 99 carcinomas of various stages, 16 adenomas, 63 samples from patients with cancer other than CRC (20 breast [stages I-III], 22 bladder [stages I-III], 21 lung [stages I and II]), 39 samples from patients with no evidence of cancer and 76 distant resection ends (histopathologically normal) from CRC patients. These samples were divided into training and independent test sets, and used to select the gene methylation assays best able to discriminate between cancerous and non-cancerous samples. The training set included retrospectively collected tumors from 65 colorectal cancer patients (all stages) and 74 distant resection ends. Using the 10 best performing genes the results were confirmed on an independent test set containing 59 samples from patients with cancer other than CRC, 39 non-cancerous controls and 50 cancer cases (34 carcinomas and 16 adenomas).
The individual performance of the 10 best performing tissue markers OSMR, SFRP1, GATA4, SFRP2, NDRG4, ADAM23, GATA5, MGMT, APC and JPH3 is shown in FIG. 7, when the analytical cut-off was set to give 100% specificity, except for JPH3 where a specificity of 95% was obtained (based on the 39 non-cancerous controls). In addition to the colon test genes, the independent reference gene β-Actin (ACT) was also measured. The ratios between the colon test genes and ACT were calculated, and are the test result of the assay.

[1] = 16 adenoma tissue samples vs 39 controls
[2] = 34 carcinoma tissue samples vs 39 controls
[3] = second cut off ratio, between ( )

Substance | Sensitivity [1] | Specificity [1] | Sensitivity [2] | Specificity [2] | Specificity (%) | Sensitivity (%) (first cut off ratio) | Sensitivity (%) [3]
SFRP1 (DNA TGTAGTTTTCGGAGTTAGTGTCGCGC; listed as DNA, chemistry not given here) | 88% | 100% | 82% | 100% | 100% | 84% | (92) %
GATA5 (DNA AGTTCGTTTTTAGGTTAGTTTTCGGC; listed as DNA, chemistry not given here) | 63% | 100% | 53% | 100% | 100% | 56% | (66) %

From US12215389B2, “Compositions for detecting epigenetic modifications” (EXACT SCIENCES CORPORATION, priority 2007, dated 2025)
